This is an account of results in publication PMC6009968, “Through scaffold modification to 3,5-diaryl-4,5-dihydroisoxazoles: new potent and selective inhibitors of monoamine oxidase B” (Journal of Enzyme Inhibition and Medicinal Chemistry, 2017).

Each structure is given as a SMILES string. Where two headings read alike, the source gives them in different places. Marks after values point to notes of the source that are not given here.

One test addresses T1, hMAO-B (Homo sapiens, UniProt P27338).
T1 sequence (P27338 1-520): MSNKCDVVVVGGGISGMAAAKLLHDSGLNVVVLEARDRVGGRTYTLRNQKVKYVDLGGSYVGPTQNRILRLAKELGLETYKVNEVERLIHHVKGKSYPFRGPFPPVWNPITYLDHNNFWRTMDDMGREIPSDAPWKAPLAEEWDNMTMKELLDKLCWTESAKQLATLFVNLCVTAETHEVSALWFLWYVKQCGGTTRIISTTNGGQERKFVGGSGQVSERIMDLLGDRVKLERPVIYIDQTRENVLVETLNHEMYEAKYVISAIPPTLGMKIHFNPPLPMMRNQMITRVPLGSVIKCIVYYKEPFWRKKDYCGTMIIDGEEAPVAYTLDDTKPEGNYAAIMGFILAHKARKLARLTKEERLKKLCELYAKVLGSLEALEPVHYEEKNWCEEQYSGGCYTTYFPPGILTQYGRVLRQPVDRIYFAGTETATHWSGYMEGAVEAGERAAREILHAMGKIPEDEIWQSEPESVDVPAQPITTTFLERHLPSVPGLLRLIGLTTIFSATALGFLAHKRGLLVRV
Put plainly: Inhibition of human recombinant MAO B (Amplex Red assay). The note with it: for Ratio, selectivity ratios [IC50(MAO-A)]/[IC50(MAO-B)]: bounds assume IC50 against MAO-A is the highest concentration tested (100 μM); for Ratio: assumes the inactive isoform IC50 is the highest concentration tested (100 μM).

Another test has as its target T2, hMAO-A (Homo sapiens, UniProt P21397).
T2 sequence (P21397 1-527): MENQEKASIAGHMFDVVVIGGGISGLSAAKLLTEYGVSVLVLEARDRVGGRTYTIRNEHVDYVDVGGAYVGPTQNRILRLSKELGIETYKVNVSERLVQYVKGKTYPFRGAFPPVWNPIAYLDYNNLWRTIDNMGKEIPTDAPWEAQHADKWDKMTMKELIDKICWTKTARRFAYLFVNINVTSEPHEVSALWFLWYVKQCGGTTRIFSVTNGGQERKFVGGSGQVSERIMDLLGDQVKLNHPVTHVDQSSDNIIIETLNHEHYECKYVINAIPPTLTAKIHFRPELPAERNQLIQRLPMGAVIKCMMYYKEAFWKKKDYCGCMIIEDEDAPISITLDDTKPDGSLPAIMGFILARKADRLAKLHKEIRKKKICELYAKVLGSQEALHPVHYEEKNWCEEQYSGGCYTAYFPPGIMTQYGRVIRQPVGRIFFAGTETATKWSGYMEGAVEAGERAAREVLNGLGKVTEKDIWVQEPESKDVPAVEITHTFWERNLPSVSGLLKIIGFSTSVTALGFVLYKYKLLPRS
Put plainly: Inhibition of human recombinant MAO A (Amplex Red assay).

Setting [1] is: read-out: MAO-B (IC50), Table 3, mean ± SEM from five experiments.
Setting [2] is: read-out: MAO-A (IC50), Table 3, highest concentration tested.
[3] abbreviates: read-out: MAO-B (IC50), Table 4, single enantiomers, mean ± SEM from five experiments.
[4] abbreviates: read-out: MAO-A (IC50), Table 4, single enantiomers.

As a reminder, the IC50 is the concentration that inhibits the measured activity by half. With `Cc1ccc(C2=NOC(c3ccc(C)cc3)C2)cc1` (racemic) [EMAC II j], at hMAO-B (Table 3), the “Ratio, selectivity ratios [IC50(MAO-A)]/[IC50(MAO-B)]” value (“Ratio, selectivity ratios” for short) was >2436^d. Moreover, the IC50 was 41 ± 1.52 nM on hMAO-B (setting [1]) and greater than 100000 nM on hMAO-A (setting [2]).

Take `Cc1ccc(C2=NOC(c3ccc(F)cc3)C2)cc1` (racemic) [EMAC II k]: on hMAO-B (Table 3), the “Ratio, selectivity ratios” value is >312^d. Further, the 50% inhibitory concentration (IC50) at hMAO-B (setting [1]) was 320 ± 13.6 nM; on hMAO-A (setting [2]), greater than 100000 nM.

`Cc1ccc(C2=NOC(c3ccc(Cl)c(Cl)c3)C2)cc1` (racemic) [EMAC II l]: the “Ratio, selectivity ratios” value at hMAO-B (Table 3) is listed as >8354^d. Further, the results for the 50% inhibitory concentration (IC50) at hMAO-B (setting [1]) and at hMAO-A (setting [2]) were 12 ± 0.37 nM and greater than 100000 nM, respectively.

Take `COc1ccc(C2CC(c3ccc(C)cc3)=NO2)cc1` (racemic) [EMAC II m]: the “Ratio, selectivity ratios” value on hMAO-B (Table 3) was >222^d. In addition, the IC50 on hMAO-B (setting [1]) was 450 ± 18 nM; at hMAO-A (setting [2]), greater than 100000 nM.

In the case of `Cc1ccc(C2=NOC(c3ccc(Cl)cc3)C2)cc1` (centres unmarked) [EMAC II i], the IC50 is 104 ± 3.69 nM on hMAO-B and greater than 100000 nM at hMAO-A. In addition, the “Ratio, selectivity ratios” value on hMAO-B (Table 3) is on record as >961^d.

For the compound `Cc1ccc(C2=NO[C@@H](c3ccc(Cl)cc3)C2)cc1` [R-(−) EMAC II i], the results for the IC50 on hMAO-B and at hMAO-A were 15.3 ± 0.95 nM and greater than 100000 nM, respectively. Also, the Ratio at hMAO-B (Table 4, single enantiomers) is given as 6549^b.

For the compound `Cc1ccc(C2=NO[C@@H](c3ccc(C)cc3)C2)cc1` [R-(−) EMAC II j], the Ratio at hMAO-B (Table 4, single enantiomers) is 39 216^b. The IC50 at hMAO-B (setting [3]) was 2.55 ± 0.11 nM; on hMAO-A (setting [4]) it was greater than 100000 nM.

As for `Cc1ccc(C2=NO[C@@H](c3ccc(F)cc3)C2)cc1` [R-(−) EMAC II k], the Ratio at hMAO-B (Table 4, single enantiomers) is reported as 333.5^b. The half-inhibitory concentration (IC50) was 300 ± 12 nM on hMAO-B (setting [3]) and greater than 100000 nM at hMAO-A (setting [4]).

`Cc1ccc(C2=NO[C@@H](c3ccc(Cl)c(Cl)c3)C2)cc1` [R-(−) EMAC II l]: the “selectivity towards MAO B, increase of the enantiomer versus the racemic mixture” value at hMAO-B is given as “increased by more than six folds”. Moreover, the Ratio at hMAO-B (Table 4, single enantiomers) is 52 910^b. In addition, the IC50 on hMAO-A is greater than 100000 nM.

`COc1ccc([C@H]2CC(c3ccc(C)cc3)=NO2)cc1` [R-(−) EMAC II m]: the Ratio on hMAO-B (Table 4, single enantiomers) is 792.6^b. In addition, the IC50 on hMAO-B (setting [3]) is 126 ± 8.44 nM; on hMAO-A (setting [4]) it was greater than 100000 nM.

On to `Cc1ccc(C2=NO[C@H](c3ccc(Cl)cc3)C2)cc1` [S-(+) EMAC II i], for which the IC50 on hMAO-B (read-out: MAO-B (IC50), Table 4, single enantiomers) was greater than 100000 nM; at hMAO-A (setting [4]), greater than 100000 nM.

Regarding `Cc1ccc(C2=NO[C@H](c3ccc(C)cc3)C2)cc1` [S-(+) EMAC II j], the Ratio at hMAO-B (Table 4, single enantiomers) is recorded as 3188^b. Also, the IC50 on hMAO-A (setting [4]) is greater than 100000 nM.

In the case of `Cc1ccc(C2=NO[C@H](c3ccc(F)cc3)C2)cc1` [S-(+) EMAC II k], at hMAO-B (Table 4, single enantiomers), the Ratio was 2956^b. The concentration for half-maximal inhibition (IC50) on hMAO-A (setting [4]) was greater than 100000 nM.

With `Cc1ccc(C2=NO[C@H](c3ccc(Cl)c(Cl)c3)C2)cc1` [S-(+) EMAC II l], the Ratio at hMAO-B (Table 4, single enantiomers) is recorded as 9124. Moreover, on hMAO-A, the IC50 is greater than 100000 nM.

As for `COc1ccc([C@@H]2CC(c3ccc(C)cc3)=NO2)cc1` [S-(+) EMAC II m], the Ratio on hMAO-B (Table 4, single enantiomers) worked out at 342.6. The IC50 at hMAO-B (setting [3]) was 292 ± 13.4 nM; on hMAO-A (setting [4]) it was greater than 100000 nM.
